Laboratory results from ChEMBL document CHEMBL3997793, “Discovery of peptidic miR-21 processing inhibitor by mirror image phage display: A novel method to generate RNA binding D-peptides” (Bioorg Med Chem Lett, 2017).

Columns and labels:
[1] = Binding affinity to synthetic 3'-biotin-labelled mirrored pre-miR-21 RNA by ELISA
[2] = Binding affinity to synthetic 3'-biotin-labelled pre-miR-21 RNA by ELISA
[3] = Binding affinity to synthetic 3'-biotin-labelled pre-miR-21 RNA assessed as inhibition of human recombinant Dicer-mediated pre-miR-21 processing by measuring reduction in mature miR-21 formation pretreated for 30 mins followed by dicer addition after 2 hrs by SYBR staining based PAGE analysis

EC50 [1] [nM] | EC50 [2] [µM] | IC50 [3] [nM] | SMILES
150 | 7.4 |  | CC(C)[C@H](NC(=O)[C@H](C)NC(=O)[C@H](CCCNC(=N)N)NC(=O)[C@@H]1CSSC[C@H](NC(=O)[C@H](CCCNC(=N)N)NC(=O)CNC(=O)[C@@H]2CCCN2C(=O)CCCC[C@@H]2SC[C@@H]3NC(=O)N[C@@H]32)C(=O)N[C@@H](CCCCN)C(=O)N2CCC[C@H]2C(=O)N[C@@H](CCCCN)C(=O)N[C@@H](CCCNC(=N)N)C(=O)N[C@@H](CCCNC(=N)N)C(=O)N[C@@H](CCCNC(=N)N)C(=O)N[C@@H](CCCNC(=N)N)C(=O)N[C@@H](C)C(=O)N[C@@H]([C@@H](C)O)C(=O)N1)C(=O)O
1600 | 0.44 | 540 | CC(C)[C@@H](NC(=O)[C@@H](C)NC(=O)[C@@H](CCCNC(=N)N)NC(=O)[C@H]1CSSC[C@@H](NC(=O)[C@@H](CCCNC(=N)N)NC(=O)CNC(=O)[C@H]2CCCN2C(=O)CCCC[C@@H]2SC[C@@H]3NC(=O)N[C@@H]32)C(=O)N[C@H](CCCCN)C(=O)N2CCC[C@@H]2C(=O)N[C@H](CCCCN)C(=O)N[C@H](CCCNC(=N)N)C(=O)N[C@H](CCCNC(=N)N)C(=O)N[C@H](CCCNC(=N)N)C(=O)N[C@H](CCCNC(=N)N)C(=O)N[C@H](C)C(=O)N[C@H]([C@H](C)O)C(=O)N1)C(=O)O
